Structures can show the parent of a compound that is named as a salt.
target: purified recombinantly expressed human SSAO (Homo sapiens (Human), UniProt Q16853); assay: SSAO enzyme inhibition assay (HRP-coupled hydrogen peroxide detection or 14C-benzaldehyde detection, benzylamine substrate); assay type: biochemical; conditions: SSAO inhibitory activity, human recombinant SSAO, RT
Method: All primary assays were performed at RT. with purified recombinantly expressed human SSAO. Enzyme was prepared essentially as described in Öhman et al. (Protein Expression and Purification 46 (2006) 321-331). In addition, secondary- and selectivity assays were performed using SSAO prepared from various tissues or purified rat recombinant SSAO. The enzyme activity was assayed with benzylamine as substrate by measuring either benzaldehyde production, using ^14C-labeled substrate, or by utilizing the production of hydrogen peroxide in a horseradish peroxidase (HRP) coupled reaction. Briefly, test compounds were dissolved in dimethyl sulfoxide (DMSO) to a concentration of 10 mM. Dose-response measurements were assayed by either creating 1:10 serial dilutions in DMSO to produce a 7 point curve or by making 1:3 serial dilutions in DMSO to produce 11 point curves.
In a horseradish peroxidase (HRP) coupled reaction, hydrogen peroxide oxidation of 10-acetyl-3,7-dihydroxyphenoxazine produced resorufin, which is a highly fluorescent compound (Zhout and Panchuk-Voloshina. Analytical Biochemistry 253 (1997) 169-174; Amplex® Red Hydrogen Peroxide/peroxidase Assay kit, Invitrogen A22188). Enzyme and compounds in 50 mM sodium phosphate, pH 7.4 were set to pre-incubate in flat-bottomed microtiter plates for approximately 15 min before initiating the reaction by addition of a mixture of HRP, benzylamine and Amplex reagent. Benzylamine concentration was fixed at a concentration corresponding to the Michaelis constant, determined using standard procedures. Fluorescence intensity was then measured at several time points during 1-2 h, exciting at 544 nm and reading the emission at 590 nm. For the human SSAO assay final concentrations of the reagents in the assay wells were: SSAO enzyme 1 ug/ml, benzylamine 100 uM, Amplex reagent 20 uM, HRP 0.1 U/mL and varying concentrations of test compound. The inhibition was measured as % decrease of the signal compared to a control without inhibitor (only diluted DMSO). The background signal from a sample containing no SSAO enzyme was subtracted from all data points. Data was fitted to a four parameter logistic model and IC50 values were calculated using the GraphPad Prism 4 or XLfit 4 programs.
SSAO activity was assayed using 14C-labeled benzylamine and analysed by measuring radioactive benzaldehyde. In a white 96-well optiplate (Packard), 20 uL of diluted test compound was pre-incubated at room temperature with 20 uL SSAO enzyme for approximately 15 min with continuous agitation. All dilutions were made with PBS. The reaction was initiated by adding 20 uL of the benzylamine substrate solution containing [7-14C] Benzylamine hydrochloride (CFA589, GE Healthcare). The plate was incubated for 1 h as above after which the reaction was stopped by acidification (10 uL 1M aq HCl). Then 90 uL Micro Scint-E solution (Perkin-Elmer) was added to each well and the plate was continuously mixed for 15 min. Phase separation occurred instantly and activity was read in a Topcount scintillation counter (Perkin-Elmer). In the final reaction well, the human recombinant SSAO concentration was 10 ug/ml. In order to optimize sensitivity, the substrate concentration was decreased as compared to the HRP coupled assay in order to get a higher fraction of radioactive product. In the human SSAO assay, benzylamine concentration was 40 uM (0.2 uCi/mL). Data was analysed as above.

Sequence of purified recombinantly expressed human SSAO (Q16853 29-763): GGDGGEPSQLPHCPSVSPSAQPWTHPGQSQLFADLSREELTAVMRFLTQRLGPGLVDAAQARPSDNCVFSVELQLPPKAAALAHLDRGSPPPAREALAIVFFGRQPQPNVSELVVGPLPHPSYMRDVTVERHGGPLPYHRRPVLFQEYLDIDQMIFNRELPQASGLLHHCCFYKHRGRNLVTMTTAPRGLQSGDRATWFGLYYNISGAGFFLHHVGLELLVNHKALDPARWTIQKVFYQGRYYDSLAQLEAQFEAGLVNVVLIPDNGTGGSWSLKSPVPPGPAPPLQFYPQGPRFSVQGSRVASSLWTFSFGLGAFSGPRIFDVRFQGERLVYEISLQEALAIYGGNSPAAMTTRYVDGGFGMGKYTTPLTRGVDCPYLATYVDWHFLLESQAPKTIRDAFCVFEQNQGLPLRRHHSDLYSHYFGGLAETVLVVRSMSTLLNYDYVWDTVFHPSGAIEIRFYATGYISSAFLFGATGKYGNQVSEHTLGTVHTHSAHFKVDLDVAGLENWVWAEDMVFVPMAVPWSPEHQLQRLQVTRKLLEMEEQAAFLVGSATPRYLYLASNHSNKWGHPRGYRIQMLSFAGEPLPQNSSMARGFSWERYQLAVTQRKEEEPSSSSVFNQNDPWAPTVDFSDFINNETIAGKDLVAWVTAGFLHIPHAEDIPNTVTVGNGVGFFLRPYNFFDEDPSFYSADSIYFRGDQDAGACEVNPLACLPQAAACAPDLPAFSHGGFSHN

| Compound | IC50 [nM] |
| --- | --- |
| Fc1ccc(-n2c(-c3ccc(OC4CCOCC4)nc3)nc3ccncc32)cc1 [Example 113, 5-[3-(4-Fluorophenyl)-3H-imidazo[4,5-c]pyridin-2-yl]-2-(oxan-4-yloxy)pyridine] | < 50 |
| O=c1cc(-c2nc3ccncc3n2-c2ccc(F)cc2)ccn1C1CC1 [Example 115, 1-Cyclopropyl-4-[3-(4-fluorophenyl)-3H-imidazo[4,5-c]pyridin-2-yl]-1,2-dihydropyridin-2-one] | < 50 |
| Cc1ccc(-n2c(-c3cnc(N4C[C@@H](C)O[C@@H](C)C4)nc3)nc3ccncc32)cn1 [Example 118, (2R,6S)-2,6-Dimethyl-4-{5-[3-(6-methylpyridin-3-yl)-3H-imidazo[4,5-c]pyridin-2-yl]pyrimidin-2-yl}morpholine] | < 50 |
| Clc1ccc(-n2c(-c3ccccn3)cc3ccncc32)cc1 [Example 121, 2-[1-(4-Chlorophenyl)-1H-pyrrolo[2,3-c]pyridin-2-yl]pyridine] | < 50 |
| Clc1ccc(-n2c(-c3cncnc3)cc3ccncc32)cc1 [Example 123] | < 50 |
| Clc1ccc(-n2c(-c3cnccn3)cc3ccncc32)cc1 [Example 124, 2-[1-(4-Chlorophenyl)-1H-pyrrolo[2,3-c]pyridin-2-yl]pyrazine] | < 50 |
| Cc1nc(C)c(-c2cc3ccncc3n2-c2ccc(Cl)cc2)[nH]1 [Example 126, 5-[1-(4-Chlorophenyl)-1H-pyrrolo[2,3-c]pyridin-2-yl]-2,4-dimethyl-1H-imidazole] | < 50 |
| Clc1ccc(-n2c(-c3cnc(N4CCOCC4)nc3)cc3ccncc32)cc1 [Example 127, 4-{5-[1-(4-Chlorophenyl)-1H-pyrrolo[2,3-c]pyridin-2-yl]pyrimidin-2-yl}morpholine] | < 50 |
| Cc1cc(N2CCOCC2)ncc1-c1cc2ccncc2n1-c1ccc(Cl)cc1 [Example 129, 4-{5-[1-(4-Chlorophenyl)-1H-pyrrolo[2,3-c]pyridin-2-yl]-4-methylpyridin-2-yl}morpholine; bis(trifluoroacetic acid)] | < 50 |
| Brc1ccc(-n2c(-c3cnc(N4CCOCC4)nc3)cc3ccncc32)cc1 [Example 133, 4-{5-[1-(4-Bromophenyl)-1H-pyrrolo[2,3-c]pyridin-2-yl]pyrimidin-2-yl}morpholine] | < 50 |
| Cn1nccc1-c1cc2ccncc2n1-c1ccc(Cl)cc1 [Example 134, 5-[1-(4-Chlorophenyl)-1H-pyrrolo[2,3-c]pyridin-2-yl]-1-methyl-1H-pyrazole] | < 50 |
| Cn1cc(-c2cc3ccncc3n2-c2ccc(Cl)cc2)cn1 [Example 135, 4-[1-(4-Chlorophenyl)-1H-pyrrolo[2,3-c]pyridin-2-yl]-1-methyl-1H-pyrazole] | < 50 |
| CN(C)c1ncc(-c2cc3ccncc3n2-c2ccc(Cl)cc2)cn1 [Example 137, 5-[1-(4-Chlorophenyl)-1H-pyrrolo[2,3-c]pyridin-2-yl]-N,N-dimethylpyrimidin-2-amine; bis(trifluoroacetic acid)] | < 50 |
| O=c1cc(-c2cc3ccncc3n2-c2ccc(Cl)cc2)ccn1C1CC1 [Example 138, 4-[1-(4-Chlorophenyl)-1H-pyrrolo[2,3-c]pyridin-2-yl]-1-cyclopropyl-1,2-dihydropyridin-2-one] | < 50 |
| Clc1ccc(-n2c(-c3cnc(NC4CCOCC4)nc3)cc3ccncc32)cc1 [Example 139, 5-[1-(4-Chlorophenyl)-1H-pyrrolo[2,3-c]pyridin-2-yl]-N-(oxan-4-yl)pyrimidin-2-amine] | < 50 |
| Clc1ccc(-n2c(-c3ccc(CN4CCOCC4)nc3)cc3ccncc32)cc1 [Example 140, 4-({5-[1-(4-Chlorophenyl)-1H-pyrrolo[2,3-c]pyridin-2-yl]pyridin-2-yl}methyl)morpholine] | < 50 |
| Cn1ccc(-c2cc3ccncc3n2-c2ccc(Cl)cc2)cc1=O [Example 143, 4-[1-(4-Chlorophenyl)-1H-pyrrolo[2,3-c]pyridin-2-yl]-1-methyl-1,2-dihydropyridin-2-one] | < 50 |
| Cn1c(-c2cc3ccncc3n2-c2ccc(Cl)cc2)cccc1=O [Example 145, 6-[1-(4-Chlorophenyl)-1H-pyrrolo[2,3-c]pyridin-2-yl]-1-methyl-1,2-dihydropyridin-2-one] | < 50 |
| Nc1cc(-c2cc3ccncc3n2-c2ccc(Cl)cc2)ccn1 [Example 147, 4-[1-(4-Chlorophenyl)-1H-pyrrolo[2,3-c]pyridin-2-yl]pyridin-2-amine] | < 50 |
| Fc1cncc(-c2cc3ccncc3n2-c2ccc(Cl)cc2)c1 [Example 148, 3-[1-(4-Chlorophenyl)-1H-pyrrolo[2,3-c]pyridin-2-yl]-5-fluoropyridine] | < 50 |
| Clc1ccc(-n2c(-c3cnc(NCC4CC4)nc3)cc3ccncc32)cc1 [Example 149, 5-[1-(4-Chlorophenyl)-1H-pyrrolo[2,3-c]pyridin-2-yl]-N-(cyclopropylmethyl)pyrimidin-2-amine] | < 50 |
| Cc1cnccc1-c1cc2ccncc2n1-c1ccc(Cl)cc1 [Example 154, 4-[1-(4-Chlorophenyl)-1H-pyrrolo[2,3-c]pyridin-2-yl]-3-methylpyridine] | < 50 |
| O=c1cc(-c2cc3ccncc3n2-c2ccccc2)ccn1C1CC1 [Example 155, 1-Cyclopropyl-4-{1-phenyl-1H-pyrrolo[2,3-c]pyridin-2-yl}-1,2-dihydropyridin-2-one] | 200 to 1200 |

target: human ether a go-go related gene (hERG) K+ channel (Homo sapiens (Human), UniProt Q12809); assay: hERG assay, IonWorks patch clamp electrophysiology; assay type: cell-based; conditions: Chinese Hamster Lung cell line stably expressing hERG; max assay concentration 11 uM
Method: Compounds of the invention were tested for inhibition of the human ether a go-go related gene (hERG) K^+ channel using IonWorks patch clamp electrophysiology. 8 Point concentration-response curves were generated on two occasions using 3-fold serial dilutions from the maximum assay concentration (11 uM). Electrophysiological recordings were made from a Chinese Hamster Lung cell line stably expressing the full length hERG channel. Single cell ion currents were measured in the perforated patch clamp configuration (100 ug/mL amphoterocin) at room temperature using an IonWorks Quattro instrument. The internal solution contained 140 mM KCl, 1 mM MgCl2, 1 mM EGTA and 20 mM HEPES and was buffered to pH 7.3. The external solution contained 138 mM NaCl, 2.7 mM KCl, 0.9 mM CaCl2, 0.5 mM MgCl2, 8 mM Na2HPO4 and 1.5 mM KH2PO4, and was buffered to pH 7.3. […] This sequence was repeated 5 times at a frequency of 0.25 Hz. Currents were measured from the tail step at the 5th pulse, and referenced to the holding current. Compounds were incubated for 6-7 min prior to a second measurement of the hERG signal using an identical pulse train. […] A control compound (quinidine) was used (see Table 20 below).

Sequence of human ether a go-go related gene (hERG) K+ channel (Q12809 whole entry): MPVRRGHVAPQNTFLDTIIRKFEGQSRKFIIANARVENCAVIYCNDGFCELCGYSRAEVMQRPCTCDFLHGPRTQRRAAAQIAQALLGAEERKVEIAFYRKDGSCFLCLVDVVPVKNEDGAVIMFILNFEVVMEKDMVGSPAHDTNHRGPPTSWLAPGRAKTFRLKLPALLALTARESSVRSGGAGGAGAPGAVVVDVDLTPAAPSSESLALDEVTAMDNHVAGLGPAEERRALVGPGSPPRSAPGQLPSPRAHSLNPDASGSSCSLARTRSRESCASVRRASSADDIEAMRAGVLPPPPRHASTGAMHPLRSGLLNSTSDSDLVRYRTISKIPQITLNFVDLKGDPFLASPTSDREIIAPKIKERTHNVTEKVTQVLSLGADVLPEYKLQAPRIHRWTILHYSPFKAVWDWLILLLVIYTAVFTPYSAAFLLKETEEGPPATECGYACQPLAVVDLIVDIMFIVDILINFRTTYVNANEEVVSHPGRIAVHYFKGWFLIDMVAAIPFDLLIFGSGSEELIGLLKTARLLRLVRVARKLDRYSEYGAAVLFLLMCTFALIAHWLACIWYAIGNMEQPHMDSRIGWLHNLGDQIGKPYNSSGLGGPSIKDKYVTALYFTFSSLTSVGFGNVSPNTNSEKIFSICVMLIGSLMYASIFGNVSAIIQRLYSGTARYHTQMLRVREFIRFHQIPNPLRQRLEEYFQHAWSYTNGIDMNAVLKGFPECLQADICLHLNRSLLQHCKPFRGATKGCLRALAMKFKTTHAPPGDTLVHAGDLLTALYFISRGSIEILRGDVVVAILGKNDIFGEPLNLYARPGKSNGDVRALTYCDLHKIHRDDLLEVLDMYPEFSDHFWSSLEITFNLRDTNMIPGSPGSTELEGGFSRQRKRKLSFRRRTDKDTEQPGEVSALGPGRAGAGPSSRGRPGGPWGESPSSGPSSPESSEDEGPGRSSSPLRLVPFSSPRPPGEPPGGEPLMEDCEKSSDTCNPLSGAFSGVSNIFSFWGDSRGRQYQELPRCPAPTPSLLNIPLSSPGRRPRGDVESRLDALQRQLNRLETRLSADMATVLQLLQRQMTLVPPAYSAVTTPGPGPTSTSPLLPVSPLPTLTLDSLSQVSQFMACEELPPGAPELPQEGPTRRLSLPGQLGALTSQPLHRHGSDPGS

| Compound | IC50 [nM] |
| --- | --- |
| Clc1ccc(-n2c(-c3ccncc3)nc3ccncc32)cc1 [Example 2, 4-[3-(4-Chlorophenyl)-3H-imidazo[4,5-c]pyridin-2-yl]pyridine] | > 10000 |
| Clc1ccc(-n2c(-c3ccc(CN4CCOCC4)nc3)nc3ccncc32)cc1 [Example 3, 4-({5-[3-(4-Chlorophenyl)-3H-imidazo[4,5-c]pyridin-2-yl]pyridin-2-yl}methyl)morpholine] | > 10000 |
| O=C1CN(c2ncc(-c3nc4ccncc4n3-c3ccc(F)cc3)cn2)CCN1 [Example 12, 4-{5-[3-(4-Fluorophenyl)-3H-imidazo[4,5-c]pyridin-2-yl]pyrimidin-2-yl}piperazin-2-one] | > 10000 |
| Clc1ccc(-n2c(-c3cnc(N4CCNCC4)o3)nc3ccncc32)cc1 [Example 18, 1-{5-[3-(4-Chlorophenyl)-3H-imidazo[4,5-c]pyridin-2-yl]-1,3-oxazol-2-yl}piperazine dihydrochloride] | > 10000 |
| Fc1ccc(-n2c(-c3cnc(NC4CCOCC4)nc3)nc3ccncc32)cc1 [Example 20, 5-[3-(4-Fluorophenyl)-3H-imidazo[4,5-c]pyridin-2-yl]-N-(oxan-4-yl)pyrimidin-2-amine] | > 10000 |
| Cc1ccc(-n2c(-c3cnc(N4CCOCC4)nc3)nc3ccncc32)c(F)c1 [Example 53, 4-{5-[3-(2-Fluoro-4-methylphenyl)-3H-imidazo[4,5-c]pyridin-2-yl]pyrimidin-2-yl}morpholine] | > 10000 |
| Fc1ccc(-n2c(-c3ccc(N4CCOCC4)nc3)nc3ccncc32)cc1 [Example 54, 4-{5-[3-(4-Fluorophenyl)-3H-imidazo[4,5-c]pyridin-2-yl]pyridin-2-yl}morpholine] | > 10000 |

Source: patent US9951068B2 (Proximagen Limited, priority 2013, dated 2018)
